Test results reported in patent publication US6235707A, “Anticoagulant peptidyl-arginine aldehyde derivatives” (Gyogyszerkutato Intezet Kft., priority 1996, dated 2001).
Like-named read-outs stand apart in the source and are kept apart here.

Experiments:
isolated human fXa = molecular target: T1, isolated human fXa (Homo sapiens, UniProt P00742); assay: fXa inhibition in solution, amidolytic method on Bz-Ile-Glu-Gly-Arg-pNA chromogen substrate (Method M6); type: biochemical; conditions: Table 3; isolated human fXa, Bz-Ile-Glu-Gly-Arg-pNA; read-out: B: fXa inhibiting IC50
T1 construct: The isolated active factor (e.g. thrombin, fXa) and its chromogen or fluorogen peptide-amide substrate are reacted; purchased SIGMA
T1 sequence (P00742 235-488 limits assumed): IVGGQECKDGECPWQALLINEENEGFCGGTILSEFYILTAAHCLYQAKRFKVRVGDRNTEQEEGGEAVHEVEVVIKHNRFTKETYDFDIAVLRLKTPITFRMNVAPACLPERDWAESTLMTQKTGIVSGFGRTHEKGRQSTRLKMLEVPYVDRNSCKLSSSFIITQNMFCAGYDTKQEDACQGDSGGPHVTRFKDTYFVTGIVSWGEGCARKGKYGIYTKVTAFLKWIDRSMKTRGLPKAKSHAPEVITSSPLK
T1 sequence (P00742 41-179 partner limits assumed): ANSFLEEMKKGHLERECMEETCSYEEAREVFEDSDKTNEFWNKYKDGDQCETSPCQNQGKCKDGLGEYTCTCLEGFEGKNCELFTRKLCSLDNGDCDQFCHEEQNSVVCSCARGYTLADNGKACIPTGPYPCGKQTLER
Protocol: (§1) Anticoagulant activity (i.e. inhibition of the proteolytic reactions in the process) is measured by anticoagulant tests, e.g. in the thrombin time (TT), activated partial thromboplastin time (APTT) and prothrombin time (PT) tests [E. J. W. Bovie et al., Mayo Clinic Laboratory Manual of Haemostasis; W. B. Saunders Co., Philadelphia (1971)]. Plasma, inhibited in spontaneous coagulation, e.g. citrate-plasma, is made to coagulate and the required coagulation time is measured. Upon the action of anticoagulants the coagulation time is prolonged proportionally to the inhibition of the reaction(s) in the process. The anticoagulant effect can be characterised by the substance concentration required to prolong the coagulation time twofold compared to the control (IC50). The effect of anticoagulants on individual coagulant proteases is measured by the amidolytic method [R. Lottenberg et al., Methods in Enzymol. 80, 341 (1981); G. Cleason, Blood Coagulation and Fibrinolysis 5, 411 (1994)]. The isolated active factor (e.g. thrombin, fXa) and its chromogen or fluorogen peptide-amide substrate are reacted in the presence or absence of the inhibitor, resp. The enzyme inhibiting action is characterised by the inhibitory constant (IC50) measured during amidolysis.
(§2) The in vitro anticoagulant effects of the compounds of general formula (I) was measured by the prothrombin time (PT), activated partial thromboplastin time (APTT) and thrombin time (TT) tests [D. Bagdy et al., Thromb. Haemost. 67, 325 (1992)]. The fxa-inhibiting effect of the compounds was also determined using the Bz-Ile-Glu-Gly-Arg-pNA chromogen substrate (see method M6).
Determination of Factor Xa Inhibition in Solution on a 96-well Microtitre Plate
a) By means of phosphate buffer (0.1M sodium phosphate and 0.05M sodium chloride, pH=7.4) 1.3 E/ml solution is prepared from human factor Xa (SIGMA), and 0.1-1.0-10 and 100 μg/ml solutions from the peptide inhibitors. The Bz-Ile-Glu-Gly-Arg-pNA substrate is used in distilled water solution ([…]).
b) From the control and the peptide inhibitor solutions (3 parallel samples of each concentration) 30-30 μl aliquots are placed into the wells. 30 μl of factor Xa, 90 μl of buffer and 150 μl of substrate are added to the peptide solution and the extinction is determined after 10 min. at 405 nm. Thereafter the steps are the same as in M2/c.

[1] = tested on: New Zealand white rabbits; assay: anticoagulant and platelet aggregation inhibiting effect in rabbits ex vivo, time course; parameters: species or system rabbit; conditions: p.o. 5 mg/kg
Protocol: (§3) The anticoagulant and platelet aggregation inhibiting effect of the compounds of general formula (I) was studied in New Zealand white rabbits ex vivo according to D. Bagdy et al. [Thromb. Haemost. 67, 357 (1992)]. The compounds were dissolved in buffered isotonic saline solution and administered i.v. (0,04-5.0 mg/kg) or by infusion (0.25-5.0 mg/kg/h) or subcutaneously (0.5-6.0 mg/kg) or p.o. (2.5-20 mg/kg). The effect of the compounds was detectable already within 30 minutes following p.o. administration, peak values were attained after 60-180 minutes and the therapeutic level was maintained dose-dependently for 3→6 hours.
(§4) The in vivo effect of ethoxycarbonyl-3-cyclobutyl-D-alanyl-L-prolyl-L-arginine aldehyde (1) is presented in detail in Tables 6 and 7. The corresponding values of C1 are listed as controls. The compound was administered p.o. in doses of 5 mg/kg. The blood samples drawn from the caudal vein in every 30-60 minutes were analysed. The whole blood clotting time (WBCT) and the inhibition of thrombin-induced blood platelet aggregation (PAI) were determined. The activated partial thromboplastin time (APTT) and the thrombin time (TT) in the citrate plasma obtained from the blood sample were also measured. The APTT and TT values are compiled in Table 6 and the WBCT and PAI values in Table 7.

[2] = tested on: thrombin-induced blood platelet aggregation; assay: ex vivo inhibition of thrombin-induced blood platelet aggregation (PAI) in rabbits after p.o. dosing; parameters: species or system rabbit; conditions: Oryctolagus cuniculus, Platelet, po, p.o. 5 mg/kg, read-out: PAI (%), percentual inhibition of platelet aggregation
Protocol: as §3, §4

citrate plasma = assay: prothrombin time (PT) plasma clotting test; type: biochemical; conditions: Table 3; twofold prolongation compared to control; read-out: A: anticoagulant IC50, PT
Protocol: as §1
In the TT test coagulation is initiated by the thrombin added to the citrate plasma. In the system 22 pmol/ml of thrombin is functioning and its inhibition can be measured on the fibrinogen (one of the natural substrates of thrombin) in the presence of plasma components. In the APTT and PT tests the full coagulation process takes place. Depending on the activator fX is activated either by the extrinsic or the intrinsic pathway. The generated fXa activates prothrombin to thrombin which, in turn, triggers plasma coagulation. The coagulation time is prolonged if the enzymes or one of them is inhibited by the inhibitor. In the APTT and PT tests at most 40 pmol/ml Xa can be generated (this is the full amount of factor X present in both systems) while 150 pmol/ml (APTT) and 350 pmol/ml (PT) of thrombin are generated [B. Kaiser et al., Thromb. Res. 65, 157 (1992)].
as §2

[3] = tested on: New Zealand white rabbits; assay: ex vivo APTT in citrate plasma of rabbits after p.o. dosing; parameters: species or system rabbit; conditions: p.o. 5 mg/kg
Protocol: as §3, §4

[4] = molecular target: tissue plasminogen activator (tPA) (Homo sapiens, UniProt P00750); assay: fibrin-plate method, plasmin formation induced by tPA; type: biochemical
tissue plasminogen activator (tPA), sequence (P00750 36-562, species assumed): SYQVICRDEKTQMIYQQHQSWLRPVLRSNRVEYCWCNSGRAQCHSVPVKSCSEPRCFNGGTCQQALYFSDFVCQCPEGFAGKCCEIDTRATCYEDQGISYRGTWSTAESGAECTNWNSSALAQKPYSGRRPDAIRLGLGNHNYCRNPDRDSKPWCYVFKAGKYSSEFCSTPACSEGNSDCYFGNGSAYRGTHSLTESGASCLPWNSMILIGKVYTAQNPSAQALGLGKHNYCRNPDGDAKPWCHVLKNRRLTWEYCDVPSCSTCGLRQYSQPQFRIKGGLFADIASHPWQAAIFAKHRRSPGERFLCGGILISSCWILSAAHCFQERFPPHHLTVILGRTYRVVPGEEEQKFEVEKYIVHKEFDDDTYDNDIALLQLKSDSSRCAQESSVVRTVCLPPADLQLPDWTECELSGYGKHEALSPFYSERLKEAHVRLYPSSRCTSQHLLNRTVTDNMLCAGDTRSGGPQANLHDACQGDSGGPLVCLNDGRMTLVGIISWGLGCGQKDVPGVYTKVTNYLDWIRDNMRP
Description: The inhibitory effect of the new compounds of the invention on plasmin (PL) as well as on plasmin formation induced by tissue plasminogen activator (tPA) and urokinase (UK) was examined by the fibrin-plate method [D. Bagdy et al.: Thromb. Haemost. 67, 325 (1992)]. Compounds C1 and C5 served as controls. […] V. Jackson et al.: J. Cardiovasc. Pharmacol. 21, 587 (1993))]. In Table 4 the results obtained with the new compounds 1 and 2 as well as those with controls C1 and C5 are presented as an example.

Which IC50 (isolated human fXa) does the source give for `CCOC(=O)N[C@H](CC1CCC1)C(=O)N1CCC[C@H]1C(=O)N[C@H](C=O)CCCNC(=N)N` [Example 1, Ethoxycarbonyl-3-cyclobutyl-D-alanyl-L-prolyl-L-arginine aldehyde] here?
Its IC50 is 40 nM.

And the “duration of anticoagulant and antiaggregation effect compared to control C1” value [1]?
The value was “longer-lasting”.

And the inhibition at 5 mg/kg ([2]; 0 h, 0 min)?
The inhibition at 5 mg/kg was 1%.

And the inhibition at 5 mg/kg ([2]; 0.5 h, 30 min)?
Its inhibition at 5 mg/kg is 71.3 ± 16.6%.

And the inhibition at 5 mg/kg ([2]; 0.75 h, 45 min)?
The inhibition at 5 mg/kg was 55.8 ± 17.4%.

And the inhibition at 5 mg/kg ([2]; 1 h, 60 min)?
Its inhibition at 5 mg/kg is 63.8 ± 21.2%.

What about the inhibition at 5 mg/kg ([2]; 1.5 h, 90 min) of the same compound?
Its inhibition at 5 mg/kg is 85.6 ± 10%.

What about the inhibition at 5 mg/kg ([2]; 2 h, 120 min) of the same compound?
Its inhibition at 5 mg/kg is 73.6 ± 19.1%.

And the inhibition at 5 mg/kg ([2]; 3 h, 180 min)?
The inhibition at 5 mg/kg was 81.8 ± 11.6%.

What about the inhibition at 5 mg/kg ([2]; 4 h, 240 min) of the same compound?
The inhibition at 5 mg/kg was 59.4 ± 19.1%.

And the inhibition at 5 mg/kg ([2]; 5 h, 300 min)?
The inhibition at 5 mg/kg was 75.8 ± 11.8%.

And the IC50 (citrate plasma)?
The IC50 was 1150 nM.

What about the “APTT relative clotting time” value ([3]; 0 min) of the same compound?
Its value is 1.0.

What about the “APTT relative clotting time” value ([3]; 30 min) of the same compound?
Its value is 1.73 ± 0.47.

What about the “APTT relative clotting time” value ([3]; 45 min) of the same compound?
The value was 1.84 ± 0.50.

What about the “APTT relative clotting time” value ([3]; 60 min) of the same compound?
The value was 1.94 ± 0.51.

What about the “APTT relative clotting time” value ([3]; 90 min) of the same compound?
Its value is 1.92 ± 0.31.

What about the “APTT relative clotting time” value ([3]; 120 min) of the same compound?
The value was 1.75 ± 0.26.

And the “APTT relative clotting time” value ([3]; 180 min)?
Its value is 1.59 ± 0.12.

And the “APTT relative clotting time” value ([3]; 240 min)?
The value was 1.38 ± 0.08.

And the “APTT relative clotting time” value ([3]; 300 min)?
Its value is 1.28 ± 0.08.

What about the IC50 ([4]; fibrin plate, hydrolysed area reduced to 50% of control) of the same compound?
The IC50 was 27000 nM.

And the “B: relative efficiency, tPA” value ([4]; related to the activity of C1 (1/IC50 = 1))?
Its value is 4.9.

What about the “activity against tPA, times lower than that of compound C5” value ([4]; text b147, second of three enzymes) of the same compound?
Its value is 4.5 times.
